Measurements: PubChem BioAssay (NCI)
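Protocol summary: plate cells (96-well), add compound at 5 concentrations, incubate 48 h, interpolate endpoints linearly. GI50 = concentration required for 50% inhibition of growth. The concentration for full growth arrest is given as TGI.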

Legend:
Test in all cases: inhibition of tumour cell growth, NCI panel, 48 h
[1] = test system: M14 melanoma
[2] = test system: K-562 leukemia
[3] = test system: SW-620 colon
[4] = test system: DU-145 prostate
[5] = test system: HOP-62 NSCLC
[6] = test system: ACHN renal
[7] = test system: HT29 colon
[8] = test system: HS 578T breast
[9] = test system: A549 NSCLC
[10] = test system: SNB-75 CNS
[11] = test system: OVCAR-3 ovarian
[12] = test system: SF-539 CNS
[13] = test system: SK-OV-3 ovarian
[14] = test system: LOX IMVI melanoma
[15] = test system: U251 CNS
[16] = test system: SN12C renal
[17] = test system: COLO 205 colon
[18] = test system: SNB-19 CNS
[19] = test system: UACC-62 melanoma
[20] = test system: HL-60(TB) leukemia
[21] = test system: HCT-15 colon
[22] = test system: EKVX NSCLC
[23] = test system: MDA-MB-468 breast
[24] = test system: NCI-H23 lung
[25] = test system: CCRF-CEM leukemia
[26] = test system: BT-549 breast
[27] = test system: MALME-3M melanoma
[28] = test system: A498 renal
[29] = test system: MDA-MB-435
[30] = test system: PC-3 prostate
[31] = test system: OVCAR-4 ovarian
[32] = test system: SF-268 CNS
[33] = test system: SK-MEL-5 melanoma
[34] = test system: HCT-116 colon
[35] = test system: UACC-257 melanoma
[36] = test system: SK-MEL-2 melanoma
[37] = test system: MOLT-4 leukemia
[38] = test system: SK-MEL-28 melanoma
[39] = test system: NCI-H522 lung
[40] = test system: HOP-92 NSCLC
[41] = test system: RPMI-8226 leukemia
[42] = test system: RXF 393 renal
[43] = test system: HCC-2998 colon
[44] = test system: 786-0 renal
[45] = test system: KM12 colon
[46] = test system: MDA-MB-231 breast
[47] = test system: MCF7 breast
[48] = test system: NCI/ADR-RES ovarian
[49] = test system: OVCAR-5 ovarian
[50] = test system: NCI-H460 lung
[51] = test system: T-47D breast
[52] = test system: UO-31 renal
[53] = test system: SR leukemia
[54] = test system: TK-10 renal
[55] = test system: SF-295 CNS
[56] = test system: OVCAR-8 ovarian
[57] = test system: CAKI-1 renal
[58] = test system: IGROV1 ovarian
[59] = test system: NCI-H226 lung

Q: How did the GI50 [1] turn out when `COc1ccc(-c2cc(-c3cc(C(C)C)c(O)cc3C)nn2-c2ccc(S(N)(=O)=O)cc2)cc1` was run?
A: The GI50 was 11.3 µM.

Q: What about the TGI [1] of the same compound?
A: The TGI was 25.1 µM.

Q: And the GI50 [2]?
A: The GI50 was 2820 nM.

Q: And the TGI [2]?
A: The TGI was 18 µM.

Q: And the GI50 [3]?
A: The GI50 was 6.44 µM.

Q: And the TGI [3]?
A: The TGI was 20.4 µM.

Q: And the GI50 [4]?
A: The GI50 was 7.31 µM.

Q: And the TGI [4]?
A: Its TGI is 19.8 µM.

Q: What about the GI50 [5] of the same compound?
A: Its GI50 is 10.7 µM.

Q: What about the TGI [5] of the same compound?
A: The TGI was 23.9 µM.

Q: And the GI50 [6]?
A: The GI50 was 11.7 µM.

Q: And the TGI [6]?
A: Its TGI is 23.9 µM.

Q: And the GI50 [7]?
A: Its GI50 is 16.2 µM.

Q: What about the TGI [7] of the same compound?
A: Its TGI is 30.2 µM.

Q: And the GI50 [8]?
A: The GI50 was 11.9 µM.

Q: And the TGI [8]?
A: Its TGI is 38.6 µM.

Q: And the GI50 [9]?
A: Its GI50 is 6.2 µM.

Q: And the TGI [9]?
A: The TGI was 20.6 µM.

Q: And the GI50 [10]?
A: The GI50 was 6.08 µM.

Q: And the TGI [10]?
A: Its TGI is 18.6 µM.

Q: What about the GI50 [11] of the same compound?
A: Its GI50 is 5.16 µM.

Q: And the TGI [11]?
A: The TGI was 17 µM.

Q: And the GI50 [12]?
A: Its GI50 is 3.63 µM.

Q: What about the TGI [12] of the same compound?
A: The TGI was 13.3 µM.

Q: And the GI50 [13]?
A: The GI50 was 13.8 µM.

Q: And the TGI [13]?
A: The TGI was 27.3 µM.

Q: And the GI50 [14]?
A: Its GI50 is 5.47 µM.

Q: And the TGI [14]?
A: The TGI was 18.1 µM.

Q: And the GI50 [15]?
A: The GI50 was 4.49 µM.

Q: And the TGI [15]?
A: The TGI was 16.5 µM.

Q: What about the GI50 [16] of the same compound?
A: Its GI50 is 12 µM.

Q: What about the TGI [16] of the same compound?
A: The TGI was 25.1 µM.

Q: What about the GI50 [17] of the same compound?
A: Its GI50 is 18.7 µM.

Q: What about the TGI [17] of the same compound?
A: The TGI was 34.1 µM.

Q: What about the GI50 [18] of the same compound?
A: The GI50 was 12.5 µM.

Q: What about the TGI [18] of the same compound?
A: The TGI was 25 µM.

Q: And the GI50 [19]?
A: The GI50 was 10.2 µM.

Q: And the TGI [19]?
A: Its TGI is 22.1 µM.

Q: What about the GI50 [20] of the same compound?
A: The GI50 was 3.53 µM.

Q: What about the TGI [20] of the same compound?
A: The TGI was 19.8 µM.

Q: And the GI50 [21]?
A: The GI50 was 3.69 µM.

Q: What about the TGI [21] of the same compound?
A: The TGI was 14.5 µM.

Q: And the GI50 [22]?
A: Its GI50 is 10.3 µM.

Q: And the TGI [22]?
A: Its TGI is 21.9 µM.

Q: What about the GI50 [23] of the same compound?
A: The GI50 was 2070 nM.

Q: And the TGI [23]?
A: Its TGI is 5.71 µM.

Q: And the GI50 [24]?
A: Its GI50 is 10.5 µM.

Q: What about the TGI [24] of the same compound?
A: The TGI was 23 µM.

Q: What about the GI50 [25] of the same compound?
A: Its GI50 is 3.43 µM.

Q: And the TGI [25]?
A: Its TGI is 26.3 µM.

Q: What about the GI50 [26] of the same compound?
A: Its GI50 is 3.29 µM.

Q: What about the TGI [26] of the same compound?
A: Its TGI is 13.2 µM.

Q: And the GI50 [27]?
A: Its GI50 is 11.8 µM.

Q: And the TGI [27]?
A: Its TGI is 24.3 µM.

Q: What about the GI50 [28] of the same compound?
A: Its GI50 is 13.9 µM.

Q: What about the TGI [28] of the same compound?
A: The TGI was 27.8 µM.

Q: And the GI50 [29]?
A: Its GI50 is 2220 nM.

Q: And the TGI [29]?
A: Its TGI is 4.84 µM.

Q: What about the GI50 [30] of the same compound?
A: The GI50 was 10.3 µM.

Q: What about the TGI [30] of the same compound?
A: Its TGI is 24.7 µM.

Q: And the GI50 [31]?
A: The GI50 was 13.6 µM.

Q: What about the TGI [31] of the same compound?
A: The TGI was 31 µM.

Q: And the GI50 [32]?
A: Its GI50 is 12.9 µM.

Q: And the TGI [32]?
A: Its TGI is 28.6 µM.

Q: And the GI50 [33]?
A: Its GI50 is 11.1 µM.

Q: And the TGI [33]?
A: The TGI was 23.3 µM.

Q: What about the GI50 [34] of the same compound?
A: Its GI50 is 6.17 µM.

Q: What about the TGI [34] of the same compound?
A: Its TGI is 21.3 µM.

Q: What about the GI50 [35] of the same compound?
A: The GI50 was 12.7 µM.

Q: And the TGI [35]?
A: The TGI was 25.7 µM.

Q: And the GI50 [36]?
A: Its GI50 is 13.7 µM.

Q: What about the TGI [36] of the same compound?
A: Its TGI is 26.9 µM.

Q: And the GI50 [37]?
A: Its GI50 is 2880 nM.

Q: And the TGI [37]?
A: Its TGI is 8.39 µM.

Q: What about the GI50 [38] of the same compound?
A: Its GI50 is 13 µM.

Q: And the TGI [38]?
A: Its TGI is 25.7 µM.

Q: What about the GI50 [39] of the same compound?
A: The GI50 was 3.15 µM.

Q: And the TGI [39]?
A: Its TGI is 13.7 µM.

Q: And the GI50 [40]?
A: The GI50 was 7.18 µM.

Q: What about the TGI [40] of the same compound?
A: The TGI was 21.5 µM.

Q: What about the GI50 [41] of the same compound?
A: Its GI50 is 4.83 µM.

Q: What about the TGI [41] of the same compound?
A: The TGI was 32.8 µM.

Q: What about the GI50 [42] of the same compound?
A: Its GI50 is 5.76 µM.

Q: And the TGI [42]?
A: Its TGI is 20.7 µM.

Q: What about the GI50 [43] of the same compound?
A: The GI50 was 11.4 µM.

Q: And the TGI [43]?
A: Its TGI is 23.6 µM.

Q: And the GI50 [44]?
A: The GI50 was 12.2 µM.

Q: And the TGI [44]?
A: The TGI was 25 µM.

Q: What about the GI50 [45] of the same compound?
A: The GI50 was 3.76 µM.

Q: And the TGI [45]?
A: The TGI was 14.6 µM.

Q: And the GI50 [46]?
A: The GI50 was 7.99 µM.

Q: What about the TGI [46] of the same compound?
A: Its TGI is 21 µM.

Q: And the GI50 [47]?
A: The GI50 was 4.89 µM.

Q: And the TGI [47]?
A: The TGI was 20 µM.

Q: And the GI50 [48]?
A: The GI50 was 3.06 µM.

Q: What about the TGI [48] of the same compound?
A: Its TGI is 11.4 µM.

Q: What about the GI50 [49] of the same compound?
A: The GI50 was 16.3 µM.

Q: And the TGI [49]?
A: Its TGI is 29.8 µM.

Q: And the GI50 [50]?
A: Its GI50 is 8.42 µM.

Q: What about the TGI [50] of the same compound?
A: The TGI was 22 µM.

Q: And the GI50 [51]?
A: The GI50 was 4.32 µM.

Q: What about the TGI [51] of the same compound?
A: The TGI was 21.3 µM.

Q: What about the GI50 [52] of the same compound?
A: Its GI50 is 7.83 µM.

Q: And the TGI [52]?
A: Its TGI is 20.6 µM.

Q: And the GI50 [53]?
A: The GI50 was 1910 nM.

Q: What about the TGI [53] of the same compound?
A: Its TGI is 15.1 µM.

Q: What about the GI50 [54] of the same compound?
A: The GI50 was 15 µM.

Q: And the TGI [54]?
A: The TGI was 28.4 µM.

Q: What about the GI50 [55] of the same compound?
A: The GI50 was 10.9 µM.

Q: What about the TGI [55] of the same compound?
A: The TGI was 22.8 µM.

Q: What about the GI50 [56] of the same compound?
A: Its GI50 is 8.17 µM.

Q: What about the TGI [56] of the same compound?
A: Its TGI is 23.2 µM.

Q: What about the GI50 [57] of the same compound?
A: Its GI50 is 5.59 µM.

Q: And the TGI [57]?
A: The TGI was 19.2 µM.

Q: What about the GI50 [58] of the same compound?
A: Its GI50 is 13.4 µM.

Q: And the TGI [58]?
A: Its TGI is 26.5 µM.

Q: What about the GI50 [59] of the same compound?
A: The GI50 was 16.8 µM.

Q: And the TGI [59]?
A: Its TGI is 38.8 µM.
